Species on record: Rattus norvegicus
Assay: Open TG-GATES - Regimen: Single
Format: toxicity, organism-based, Sprague-Dawley
Parameters: regimen Single, gender Male, age 6 weeks
Conditions: in vivo, po, 20 mg/kg, route gavage, dose level Low; for APTT / Bas / Eos / Fbg / Hb / Ht / Lym / MCH / MCHC / MCV / Mono / Neu / PT / Plat / RBC / Ret / WBC: tissue Blood; for KIDNEY_TOTAL: tissue Kidney; for LIVER: tissue Liver; for A/G / ALP / ALT / AST / BUN / CRE / Ca / Cl / DBIL / GLC / IP / K / LDH / Na / PL / RALB / TBIL / TC / TG / TP / gamma-GTP: tissue Plasma

`CN(CCOc1ccc(CC2SC(=O)NC2=O)cc1)c1ccccn1.O=C(O)/C=C\C(=O)O` (centres undefined) [ROSIGLITAZONE MALEATE] gave a TERMINAL_BW (3 h) of 211.2 g, an APTT (3 h) of 16 s and a Bas (3 h) of 0%. For the same compound, the Eos (3 h) was 0.6%, the Fbg (3 h) was 208.6 mg/dL and the Hb (3 h) was 13.1 g/dL. The Ht (3 h) was 39.8%, the Lym (3 h) was 75.6% and the MCH (3 h) was 21.5 pg. The MCHC (3 h) was 32.9%, the MCV (3 h) was 65.3 fL and the Mono (3 h) was 9.2%. The Neu (3 h) was 14.2%, the PT (3 h) was 12.2 s and the Plat (3 h) was 111.6 x10_4/uL. The RBC (3 h) was 609 x10_4/ul, the Ret (3 h) was 8.8% and the WBC (3 h) was 102 x10_2/uL. It also gave a KIDNEY_TOTAL (3 h) of 0.8 g, an LIVER (3 h) of 10.3 g and an A/G (3 h) of 2.1. The ALP (3 h) was 1342 IU/L, the ALT (3 h) was 38.8 IU/L and the AST (3 h) was 70.4 IU/L. The BUN (3 h) was 13.2 mg/dL, the CRE (3 h) was 0.4 mg/dL and the Ca (3 h) was 11.2 mg/dL. It also gave a Cl (3 h) of 103.2 meq/L, a DBIL (3 h) of 0.016 mg/dL and a GLC (3 h) of 179.2 mg/dL. It also gave an IP (3 h) of 8.4 mg/dL, a K (3 h) of 4.3 meq/L and an LDH (3 h) of 104 IU/L. For the same compound, the Na (3 h) was 139.6 meq/L, the PL (3 h) was 151.2 mg/dL and the RALB (3 h) was 3.6 g/dL. The TBIL (3 h) was 0.052 mg/dL, the TC (3 h) was 84.4 mg/dL and the TG (3 h) was 113.4 mg/dL. It also gave a TP (3 h) of 5.4 g/dL, a gamma-GTP (3 h) of 0.6 IU/L and a TERMINAL_BW (6 h) of 199.3 g. The APTT (6 h) was 16.4 s, the Bas (6 h) was 0% and the Eos (6 h) was 0.8%. For the same compound, the Fbg (6 h) was 208.8 mg/dL, the Hb (6 h) was 13.1 g/dL and the Ht (6 h) was 39.8%. It also gave a Lym (6 h) of 78%, an MCH (6 h) of 21.3 pg and an MCHC (6 h) of 32.8%. The MCV (6 h) was 64.9 fL, the Mono (6 h) was 6.4% and the Neu (6 h) was 15.2%. It also gave a PT (6 h) of 12.1 s, a Plat (6 h) of 118.2 x10_4/uL and an RBC (6 h) of 614.6 x10_4/ul. For the same compound, the Ret (6 h) was 8.5%, the WBC (6 h) was 114.2 x10_2/uL and the KIDNEY_TOTAL (6 h) was 0.7 g. It also gave an LIVER (6 h) of 8.7 g, an A/G (6 h) of 2.5 and an ALP (6 h) of 1335.2 IU/L. For the same compound, the ALT (6 h) was 37 IU/L, the AST (6 h) was 73 IU/L and the BUN (6 h) was 9.2 mg/dL. The CRE (6 h) was 0.4 mg/dL, the Ca (6 h) was 11.1 mg/dL and the Cl (6 h) was 103.6 meq/L. For the same compound, the DBIL (6 h) was 0.014 mg/dL, the GLC (6 h) was 184.6 mg/dL and the IP (6 h) was 9.6 mg/dL. It also gave a K (6 h) of 4.3 meq/L, an LDH (6 h) of 72.8 IU/L and a Na (6 h) of 138.2 meq/L. It also gave a PL (6 h) of 135.2 mg/dL, an RALB (6 h) of 3.7 g/dL and a TBIL (6 h) of 0.048 mg/dL. It also gave a TC (6 h) of 82.4 mg/dL, a TG (6 h) of 73.8 mg/dL and a TP (6 h) of 5.2 g/dL. For the same compound, the gamma-GTP (6 h) was 0.8 IU/L, the TERMINAL_BW (9 h) was 198.4 g and the APTT (9 h) was 16.5 s. The Bas (9 h) was 0%, the Eos (9 h) was 1% and the Fbg (9 h) was 219 mg/dL. The Hb (9 h) was 12.7 g/dL, the Ht (9 h) was 38.2% and the Lym (9 h) was 73%. It also gave an MCH (9 h) of 21.7 pg, an MCHC (9 h) of 33.3% and an MCV (9 h) of 65.1 fL. For the same compound, the Mono (9 h) was 6%, the Neu (9 h) was 20.4% and the PT (9 h) was 12.2 s. The Plat (9 h) was 118 x10_4/uL, the RBC (9 h) was 586.6 x10_4/ul and the Ret (9 h) was 9%. For the same compound, the WBC (9 h) was 90.8 x10_2/uL, the KIDNEY_TOTAL (9 h) was 0.7 g and the LIVER (9 h) was 8.5 g. The A/G (9 h) was 2.4, the ALP (9 h) was 1181.6 IU/L and the ALT (9 h) was 35.2 IU/L. For the same compound, the AST (9 h) was 64.4 IU/L, the BUN (9 h) was 12.2 mg/dL and the CRE (9 h) was 0.3 mg/dL. For the same compound, the Ca (9 h) was 11 mg/dL, the Cl (9 h) was 104.6 meq/L and the DBIL (9 h) was 0.01 mg/dL. For the same compound, the GLC (9 h) was 192.4 mg/dL, the IP (9 h) was 10.3 mg/dL and the K (9 h) was 4.2 meq/L. For the same compound, the LDH (9 h) was 80.6 IU/L, the Na (9 h) was 140 meq/L and the PL (9 h) was 130.6 mg/dL. The RALB (9 h) was 3.8 g/dL, the TBIL (9 h) was 0.044 mg/dL and the TC (9 h) was 78.4 mg/dL. It also gave a TG (9 h) of 57.6 mg/dL, a TP (9 h) of 5.3 g/dL and a gamma-GTP (9 h) of 0.8 IU/L. The TERMINAL_BW (24 h) was 217.5 g, the APTT (24 h) was 15.7 s and the Bas (24 h) was 0%. For the same compound, the Eos (24 h) was 1%, the Fbg (24 h) was 232 mg/dL and the Hb (24 h) was 12.8 g/dL. It also gave a Ht (24 h) of 39%, a Lym (24 h) of 74.2% and an MCH (24 h) of 21.3 pg. It also gave an MCHC (24 h) of 32.9%, an MCV (24 h) of 64.8 fL and a Mono (24 h) of 8%. For the same compound, the Neu (24 h) was 17%, the PT (24 h) was 11.4 s and the Plat (24 h) was 119.2 x10_4/uL. The RBC (24 h) was 602.6 x10_4/ul, the Ret (24 h) was 7.1% and the WBC (24 h) was 95 x10_2/uL. The KIDNEY_TOTAL (24 h) was 0.7 g, the LIVER (24 h) was 11.3 g and the A/G (24 h) was 2.4. For the same compound, the ALP (24 h) was 1603.4 IU/L, the ALT (24 h) was 34.2 IU/L and the AST (24 h) was 66.2 IU/L. It also gave a BUN (24 h) of 16 mg/dL, a CRE (24 h) of 0.4 mg/dL and a Ca (24 h) of 11.3 mg/dL. The Cl (24 h) was 104.2 meq/L, the DBIL (24 h) was 0.014 mg/dL and the GLC (24 h) was 190.2 mg/dL. It also gave an IP (24 h) of 7.7 mg/dL, a K (24 h) of 4.3 meq/L and an LDH (24 h) of 102 IU/L. For the same compound, the Na (24 h) was 141 meq/L, the PL (24 h) was 153.4 mg/dL and the RALB (24 h) was 3.9 g/dL. It also gave a TBIL (24 h) of 0.034 mg/dL, a TC (24 h) of 87.4 mg/dL and a TG (24 h) of 128.2 mg/dL. The TP (24 h) was 5.5 g/dL and the gamma-GTP (24 h) was 1 IU/L.
